According to patent US11028054B2, “1, 4, 6-trisubstituted-2-alkyl-1H-benzo[d]imidazole derivatives as dihydroorotate oxygenase inhibitors” (Merck Patent GmbH, priority 2017, dated 2021):

Assays:
[1] = test system: Jurkat cells; test: Measurement of cell proliferation activity (Jurkat cell), XTT assay; format: cell-based; conditions: Homo sapiens, 72 hrs incubation, cell viability by XTT assay
Source text: Measurement of Cell Proliferation Activity (Jurkat Cell)
Jurkat cells are an immortalized cell line of T lymphocyte cells, which are used to study acute T cell leukaemia, T cell signalling, and the expression of various chemokine receptors susceptible to viral entry, particularly HIV. Jurkat cells are also useful in science because of their ability to produce interleukin 2. Their primary use, however, is to determine the mechanism of differential susceptibility of cancers to drugs and radiation.
Jurkat cells are cultured in RPMI medium with 10% FBS, and seeded at a density of 100,000 cells per well in a 96 well plate. Compound is added at different concentrations (typically starting at 10 μM followed by half log dilutions for a total of 8-10 concentrations). Each concentration is tested in triplicate and DMSO concentration is kept constant at 0.25-0.5%. The cells are then incubated in a CO2 incubator at 37° C. for 72 hrs before determining cell viability using XTT assay. Cell viability is plotted as a function of concentration and EC50 is determined using GraphPad Prism software
• Roehm, N et al [1991] An improved colorimetric assay for cell proliferation and viability utilizing the tetrazolium salt XTT. J. Immunol. Methods 142:257-265. Reagents: Roswells park memorial institute's medium, (RPMI-1640 complete media) pH-7.4±0.2 (Sigma R6504). • Dimethyl sulfoxide (DMSO), spectroscopic grade purchased from Spectrochem, (cat no. 0704209, B. no.—3183650 MEM Cat. No. M0268, Sigma). Fetal Bovine Serum (Cat. No. F9665, Sigma Aldrich). XTT sodium salt (Sigma Cat. No. X4251). PMS (Sigma Cat. No. 68600). Preparation of Solutions/Reagents
RPMI media supplemented with antibiotics, 10% FBS, Sodium Pyruvate and NEA (non essential amino acids).
XTT—A freshly prepared solution of XTT is made in the growth medium, with a final concentration of 1 mg/ml.
PMS—Stock is prepared with 1×PBS at 0.383 mg/ml and stored in aliquots at −20° C. The XTT solution at 20 μl/ml was added just before use.
Test solution—Serially diluted DMSO solutions are further diluted with media to 2× the required concentration in well.
Culture Jurkat cells in T-25 flasks at a density of 0.2×10^6/ml 2-3 days before the day of experiment set up.
Centrifuge Jurkat T-cell suspension at 1200 rpm for 10 minutes and resuspend cells again in fresh RPMI medium with 10% FBS. Count the cells and dilute suspension to a density of 2×10^6 cells/ml. Seed 50 μL of this suspension in each well of a 96 well plate (100,000 cells per well). Keep the edges of the plate empty to avoid evaporation. […]
XTT assay: to each well, add 50 μL of 1 mg/ml XTT solution with 20 μl of PMS/mL. Read the plates after 2 hours at 465 nm using the spectrophotometer. XTT reading for media without cells is used as background reading. […]

[2] = target: T1, DHODH (Homo sapiens (Human), UniProt Q02127); test: Measurement of DHODH inhibitory enzyme activity (coupled DCIP reduction assay); format: biochemical
T1 sequence (Q02127 whole entry): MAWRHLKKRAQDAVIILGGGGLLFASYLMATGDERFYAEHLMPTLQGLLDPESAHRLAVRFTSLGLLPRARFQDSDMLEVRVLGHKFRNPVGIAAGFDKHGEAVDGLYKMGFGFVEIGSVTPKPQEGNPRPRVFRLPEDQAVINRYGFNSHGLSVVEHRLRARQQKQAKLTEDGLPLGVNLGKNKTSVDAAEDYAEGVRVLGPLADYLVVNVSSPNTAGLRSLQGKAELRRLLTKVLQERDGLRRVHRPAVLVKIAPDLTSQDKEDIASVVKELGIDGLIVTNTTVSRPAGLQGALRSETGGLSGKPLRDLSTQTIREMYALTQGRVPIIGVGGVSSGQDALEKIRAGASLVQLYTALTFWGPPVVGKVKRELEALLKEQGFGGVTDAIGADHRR
Source text: Measurement of DHODH Inhibitory Enzyme Activity (In Vitro Assays)
The DHODH activity assay is a coupled enzyme assay in which oxidation of DHO and subsequent reduction of ubiquinone are stoichiometrically equivalent to the reduction of DCIP ([…]). The reduction of DCIP is accompanied by a loss of absorbance at 610 nm.
Reagents used: L-Dihydroorotic acid, Sigma, D7128, 2,6-Dichloroindophenol sodium salt hydrate, sigma, D1878 Dimethyl sulfoxide (DMSO), spectroscopic grade purchased from Spectrochem, cat no. 0704209, B. no.—3183650 Decylubiquinone, Sigma, D7911.
Preparation of Solutions/Reagents:
Buffer Preparation: 50 mM tris HCl, 150 mM KCl, and pH 8.0, 0.8% triton.
L-Dihydroorotic acid stock solution of 20 mM in buffer.
2, 6-Dichloroindophenol Sodium salt hydrate stock solution of 20 mM in buffer.
Decylubiquinone stock solution of 20 mM in buffer.
5 μL of Dimethyl sulfoxide or a compound of formula (I) in DMSO solution was added to the wells of a 96 well plate. Compounds of formula (I) were measured at 10 μM.
Protein along with buffer was added, so that the total volume including the DMSO was 87 μL. Compound and protein were incubated for half an hour at room temperature after mixing. 5 μL of 20 mM solution of L-Dihydroorotic acid, 5 μL of 2 mM solution of Decylubiquinone and 3 μL of 2 mM solution of 2, 6-Dichloroindophenol sodium salt hydrate were added to the above solution (total assay volume 100 μL). The mixture was stirred for 2 min and absorbance was recorded at every 10 min at 610 nanometers.
Percent inhibition is calculated as follows 100*{(Abs610 for reaction containing compound)−(Abs610 for positive control) (Abs610 for no enzyme reaction)−(Abs610 for positive control) Reaction containing compound has compound, buffer, enzyme and substrates Positive control contains DMSO, buffer, enzyme and substrates No Enzyme reaction contains DMSO, buffer and substrates IC50 determination: A 2 mM DMSO stock solution of the selected 1, 4, 6-trisubstituted-2-alkyl-1H-benzo[d]imidazole derivatives of formula (I) of the present invention to be examined was prepared. Subsequent ⅓rd dilutions were made as follows:
5 μL of each stock of compound of formula (I) (solution indicated in column 4 of table) was used for each 100 μL assay. Therefore, 5 μL of the 2 mM stock provided 100 μL of 100 μM solution of compound of formula (I), when made up with buffer, protein and substrate. See also: Ulrich et al. (2001) Eur. J. Biochem. 268, 1861-1868.

[3] = target: T1, DHODH; conditions: DHODH versus protein tyrosine kinase; cited from earlier work

SMILES	EC50 [1] [nM]	IC50 [2] [nM]	fold greater inhibitor of DHODH than of protein tyrosine kinase [3]
Cc1nc2c(C(=O)O)cc(-c3ccc(-c4ccccc4)cc3)cc2[nH]1 [Example 1, 6-([1,1'-biphenyl]-4-yl)-2-methyl-1H-benzo[d]imidazole-4-carboxylic acid]	133	10 to 99	–
C/C(O)=C(\C#N)C(=O)Nc1ccc(C(F)(F)F)cc1 [Teriflunomide]	–	–	100-1,000 fold
COc1cccc(-c2ccc(-c3cc(C(=O)O)c4nc(C)[nH]c4c3)cc2)c1 [Example 10, 6-(3'-methoxy-[1,1'-biphenyl]-4-yl)-2-methyl-1H-benzo[d]imidazole-4-carboxylic acid]	32	10 to 99	–
COc1ccccc1-c1ccc(-c2cc(C(=O)O)c3nc(C)[nH]c3c2)cc1 [Example 18, 6-(2'-methoxy-[1,1'-biphenyl]-4-yl)-2-methyl-1H-benzo[d]imidazole-4-carboxylic acid]	111	10 to 99	–
Cc1nc2c(C(=O)O)cc(-c3ccc(-c4ccccc4F)cc3)cc2[nH]1 [Example 5, 6-(2'-fluoro-[1,1'-biphenyl]-4-yl)-2-methyl-1H-benzo[d]imidazole-4-carboxylic acid]	49	10 to 99	–
Cc1nc2c(C(=O)O)cc(-c3ccc(-n4c(C)ccc4C)cc3)cc2[nH]1 [Example 111, 6-(4-(2,5-dimethyl-1H-pyrrol-1-yl)phenyl)-2-methyl-1H-benzo[d]imidazole-4-carboxylic acid]	–	1 to 9.9	–
Cc1nc2c(C(=O)O)cc(-c3ccc(OCc4ccccc4)cc3)cc2[nH]1 [Example 69, 6-(4-(benzyloxy)phenyl)-2-methyl-1H-benzo[d]imidazole-4-carboxylic acid]	–	1 to 9.9	–
